Assay results as given in ChEMBL document CHEMBL1201862, “PubChem BioAssay data set” (2004).
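Growth conditions: 96-well plates. Treatment: test compound, 48 hours, 5 concentrations. Analysis: linear interpolation between bracketing concentrations; unreached endpoints set to highest concentration. GI50 = concentration required for 50% inhibition of growth.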 Calls of active or inactive are those of the source. Rule as the data show it: active = GI50 up to about 1.1 µM and inactive = higher.

Columns and labels:
Assay in all cases: inhibition of tumour cell growth, NCI panel, 48 h
UO-31 = test system: UO-31
IGROV-1 = test system: IGROV-1
HCT-15 = test system: HCT-15
LOX IMVI = test system: LOX IMVI
M14 = test system: M14
MDA-N = test system: MDA-N
Malme-3M = test system: Malme-3M
HOP-92 = test system: HOP-92
MDA-MB-435 = test system: MDA-MB-435
SK-MEL-28 = test system: SK-MEL-28
KM12 = test system: KM12
SF-539 = test system: SF-539
SN12C = test system: SN12C
SK-MEL-2 = test system: SK-MEL-2
UACC-257 = test system: UACC-257
ACHN = test system: ACHN
HT-29 = test system: HT-29
NCI-H23 = test system: NCI-H23
SF-268 = test system: SF-268
LXFL 529 = test system: LXFL 529

SMILES	GI50 (UO-31)	GI50 (IGROV-1)	GI50 (HCT-15) [µM]	GI50 (LOX IMVI)	GI50 (M14)	GI50 (MDA-N)	GI50 (Malme-3M)	GI50 (HOP-92)	GI50 (MDA-MB-435)	GI50 (SK-MEL-28)	GI50 (KM12)	GI50 (SF-539)	GI50 (SN12C)	GI50 (SK-MEL-2)	GI50 (UACC-257)	GI50 (ACHN)	GI50 (HT-29)	GI50 (NCI-H23)	GI50 (SF-268)	GI50 (LXFL 529)
C=CC1(c2ccc3ccccc3c2)OCC(CC)(CC)CO1	32.7 µM (inactive)	21.9 µM (inactive)	17.9	18.4 µM (inactive)	19.9 µM (inactive)	29.3 µM (inactive)	28.2 µM (inactive)	23.4 µM (inactive)	22.7 µM (inactive)	39.4 µM (inactive)	20.8 µM (inactive)	14.3 µM (inactive)	21.7 µM (inactive)	17.7 µM (inactive)	27.2 µM (inactive)	20.5 µM (inactive)	20.3 µM (inactive)	20.1 µM (inactive)	33.3 µM (inactive)	
COC(=O)CC1(O)C(/C=C/c2ccccc2)C(C(=O)OC)C(=O)C(C(=O)OC)C1C(=O)OC (centres undefined)	> 100 µM (inactive)	> 100 µM (inactive)	> 100	26.7 µM (inactive)	> 100 µM (inactive)	44 µM (inactive)	> 100 µM (inactive)	> 100 µM (inactive)	> 100 µM (inactive)	> 100 µM (inactive)	> 100 µM (inactive)	> 100 µM (inactive)	> 100 µM (inactive)	> 100 µM (inactive)	> 100 µM (inactive)	> 100 µM (inactive)	> 100 µM (inactive)	> 100 µM (inactive)	> 100 µM (inactive)	
Cc1c(/N=N/c2ccccc2)c(C)n(C2OC(CO)C(O)C(O)C2O)c(=S)c1C#N (centres undefined)	26.2 µM (inactive)	37.7 µM (inactive)	28.9	22.6 µM (inactive)	25.6 µM (inactive)	19.9 µM (inactive)	32.6 µM (inactive)	16.6 µM (inactive)	13.1 µM (inactive)	32.7 µM (inactive)	33.5 µM (inactive)	24.1 µM (inactive)	20.7 µM (inactive)	16.2 µM (inactive)	33.2 µM (inactive)	30.5 µM (inactive)	32.7 µM (inactive)	27.3 µM (inactive)	17 µM (inactive)	
CCO[C@]12C[C@H](OC)[C@@]3(O)CC(C1[C@H]3OCc1ccccc1)C13C4C2[C@H](OC)C1[C@](COC)(CN4CC)[C@H](O)C[C@@H]3OC (some centres undefined)	> 100 µM (inactive)	> 100 µM (inactive)	> 100	> 100 µM (inactive)	> 100 µM (inactive)					> 100 µM (inactive)		> 100 µM (inactive)	> 100 µM (inactive)		> 100 µM (inactive)	> 100 µM (inactive)	> 100 µM (inactive)	> 100 µM (inactive)	> 100 µM (inactive)	> 100 µM (inactive)
CN(C)/C=C/c1ccnc2c1C(=O)c1ccccc1C2=O	7.48 µM (inactive)	12.2 µM (inactive)	3.34	2.79 µM (inactive)	1.92 µM (inactive)	1.32 µM (inactive)	2.03 µM (inactive)	31.8 µM (inactive)	1.35 µM (inactive)	2.48 µM (inactive)	9.66 µM (inactive)	12.9 µM (inactive)	5.2 µM (inactive)	3.65 µM (inactive)	2.25 µM (inactive)	6.73 µM (inactive)	14.8 µM (inactive)	2.48 µM (inactive)	13.6 µM (inactive)	
CC(C)(C)OC(=O)N1CCC2(CC1)C(=O)NCN2c1ccccc1	> 100 µM (inactive)	> 100 µM (inactive)	> 100	> 100 µM (inactive)	> 100 µM (inactive)	> 100 µM (inactive)	> 100 µM (inactive)	> 100 µM (inactive)	> 100 µM (inactive)	> 100 µM (inactive)	> 100 µM (inactive)	> 100 µM (inactive)	> 100 µM (inactive)	> 100 µM (inactive)	> 100 µM (inactive)	> 100 µM (inactive)	> 100 µM (inactive)	> 100 µM (inactive)	> 100 µM (inactive)	
